Experimental data from US20260283205A1, “ACYLATED DIHYDROCHALCONES, METHODS OF PRODUCTION AND USES THEREOF” (SYMRISE AG, priority 2023, published 2026).

Experiments:
[1] = system: panel of 20 trained panellists; assay: Intrinsic sweetness: concentration in water equally sweet as a 1.5% sucrose solution; format: in vivo; details: no significant difference (p<0.05) to 1.5% sucrose
Procedure: Compounds 9, 41, 57, 73 and 89 were provided as described in Example 3 and purified to >95% with preparative chromatography. The obtained compounds were used for sensory evaluations.
The intrinsic sweetness of the compounds was determined by a panel of 20 trained panellists. The intrinsic sweetness of a compound is determined by evaluating the sweetness of the compound at different concentrations in water against a 1.5% sucrose solution.
A mixture of butanoylated HG and a mixture of pentanoylated HG were provided as described in Example 3.
The intrinsic sweetness was determined as described in Example 4. As shown in the table, the concentrations of the acylated compounds, which represent equal sweetness as the 1.5% sucrose solution, are approximately ⅕ to ⅛ of the required concentration of HG (non-acylated). Thus, acylation of HG provides a strong increase of the intrinsic sweetness.

trained flavourist panel = assay: Sensory profile (impact, intensity, mouthfeel, lingering sweetness) of 5% sucrose solution with added compound; format: in vivo; details: for Lingering sweetness / Impact / Intensity / Mouthfeel: 5% sucrose solution (A1) + HG 50 ppm, compound 9 15 ppm, 41 5 ppm, 57 3 ppm, 73 5 ppm, 89 5 ppm; for Lingering sweetness: sucrose alone scores 1; for Impact: sucrose alone scores 3; for Intensity / Mouthfeel: sucrose alone scores 4
Procedure: A 5% sucrose solution was prepared. Compounds 9, 41, 57, 73 and 89 were provided as described in Example 3 and purified to >95% with preparative chromatography.
The sensory profile of the sucrose solution (control) and the sucrose solution including HG (control), compounds 9, 41, 57, 73 or 89 was determined by a trained flavourist panel comparing the impact, intensity and mouthfeel.

[2] = system: trained sensory panel (n=20); assay: Paired comparison tests (Duo test): sweetness increase of 5% sucrose solution in water; format: in vivo; parameters: unit not given here; details: dosage HG 50, compound 9 10, 41 5, 57 3, 73 5, 89 5 mg/kg
Procedure: The sensory impact of the compounds 9, 41, 57, 73 and 89 on a 5% sucrose solution in water was analysed by a trained sensory panel (n=20) using a series of paired comparison tests (Duo test). The samples were coded and randomized.

[3] = system: panel of five flavorists (n=5); assay: Taste descriptors (scale 0-9) of sugar base with sweet tasting / sweet taste modulating substances, without (A) and with (B) compound 41 or 57; format: in vivo; details: for Lingering sweetness (0-9), Δ (B-A) / Mouthfeel (0-9), Δ (B-A) / Onset sweetness (0-9), Δ (B-A) / Overall sweetness (0-9), Δ (B-A) / Mouthfeel (0-9), sample A / Lingering sweetness (0-9), sample A / Onset sweetness (0-9), sample A / Overall sweetness (0-9), sample A: scale 0-9; for Mouthfeel (0-9), sample A / Lingering sweetness (0-9), sample A / Onset sweetness (0-9), sample A / Overall sweetness (0-9), sample A: n=5; for Onset sweetness (0-9), A / Overall sweetness (0-9), A: samples (A): sugar base (5% sucrose+0.1% citric acid) + PH 25, HT 12, HC 50, RS 75, LHG 20, PD 3 or SG 60 mg/kg, without compound 41; for Onset sweetness (0-9), A: base alone 2.0; for Overall sweetness (0-9), A: base alone 3.0
Procedure: A sugar base (5% sucrose+0.1% citric acid) was provided. Further, the sweet tasting substances RS (20% Rubusoside), SG (90% steviol oligoglucosides), HC (8% Hesperetin dihydrochalcone), LHG (52% mogroside V) and the sweet taste modulating substances PD (>95% Phyllodulcin), HT (>85% Hesperetin) and PH (>98% Phloretin) were provided and added to the sugar base to produce different samples (A).
A dose of 2 mg/kg compound 41 or, respectively, 1.2 mg/kg compound 57 was added to the samples to obtain samples (B).
Different taste descriptors were compared between the respective samples (A) and (B) by a panel of five flavorists (n=5) using a scale of 0-9.
The panelists were asked to neutralize with tap water between each sample and the intensity of the descriptors of each sample were defined before tasting the next sample. The tasting of each RS, SG, HC, LHG, PD, HT or PH (samples (A)) were followed by the samples with added RS, SG, HC, LHG, PD, HT or PH+compound (41 or 57) (samples (B)) with each being compared to the intensities of the base.

[4] = system: panel of five flavorists (n=5); assay: Sweet taste modulation in lemonade bases with reduced sugar content, descriptor intensities 0-9; format: in vivo; details: 5 mg/kg compound 41 or 3 mg/kg compound 57, intensity 0-9
Procedure: A dose of 5 mg/kg compound 41 or, respectively, 3 mg/kg compound 57 were applied to different sugar reduced lemonade bases to restore the overall and sweet taste of the respective matrix with reduced sugar content. Different descriptors were determined by a panel of five flavorists (n=5) and given as intensities from 0-9.
The lemonade bases were “full sugar”, “sugar reduced”, “Stevia Hybride”, “Sugar free base Suc/Ace K” and “Sugar free base Asp/Ace K” with the following recipes: […]

[5] = cited from earlier work
[6] = difference between sample B (+1.2 mg/kg compound 57) and sample A
[7] = lemonade base "Sugar free base Asp/Ace K"
[8] = lemonade base "Sugar free base Suc/Ace K"
[9] = compound 41 series, sample A: sugar base (5% sucrose+0.1% citric acid) + sample substance alone at the listed dose (PH 25, HT 12, HC 50, RS 75, LHG 20, PD 3, SG 60 mg/kg)
[10] = compound 41 series, sample A: sugar base + sample substance alone at the listed dose
[11] = compound 57 series, sample A: sugar base + sample substance alone at the listed dose
[12] = difference between sample B (+2 mg/kg compound 41) and sample A

| SMILES | Concentration of equal sweetness as 1.5% sucrose control [1] | Lingering sweetness (trained flavourist panel) | Impact (trained flavourist panel) | Intensity (trained flavourist panel) | Mouthfeel (trained flavourist panel) | Increase of sweetness [2] | Lingering sweetness (0-9), Δ (B-A) [3, 6] | Mouthfeel (0-9), Δ (B-A) [3, 6] | Onset sweetness (0-9), Δ (B-A) [3, 6] | Overall sweetness (0-9), Δ (B-A) [3, 6] | Mouthfeel (0-9), sample A [3, 9] | Lingering sweetness (0-9), sample A [3, 10] | Lingering sweetness (0-9), sample A [3, 11] | Mouthfeel (0-9), sample A [3, 11] | Onset sweetness (0-9), sample A [3, 11] | Overall sweetness (0-9), sample A [3, 11] | Lingering sweetness (0-9), Δ (B-A) [3, 12] | Mouthfeel (0-9), Δ (B-A) [3, 12] | Onset sweetness (0-9), A [3] | Overall sweetness (0-9), A [3] | further results |
| --- | --- | --- | --- | --- | --- | --- | --- | --- | --- | --- | --- | --- | --- | --- | --- | --- | --- | --- | --- | --- | --- |
| COc1ccc(CCC(=O)c2c(O)cc(O[C@@H]3O[C@H](COC(C)=O)[C@@H](O)[C@H](O)[C@H]3O)cc2O)cc1O [Compound 9, 6″-O-Acetyl-HG] | 15 mg/kg | 2 | 3 | 4-5 | 4-5 | 33.1 |  |  |  |  |  |  |  |  |  |  |  |  |  |  |  |
| CCCCC(=O)OC[C@H]1O[C@@H](Oc2cc(O)c(C(=O)CCc3ccc(OC)c(O)c3)c(O)c2)[C@H](O)[C@@H](O)[C@@H]1O [Compound 57, 6″-O-Pentanoyl-HG] | 3 mg/kg | 3 | 4-5 | 5-6 | 5 | 25.2 | 1.0 | 0.5 | 0.5 | 1.0 |  |  |  |  |  |  |  |  |  |  | Lingering sweetness ([4]; lemonade base "Stevia Hybrid"): 2.5; Mouthfeel ([4]; lemonade base "Stevia Hybrid"): 5; Onset ([4]; lemonade base "Stevia Hybrid"): 4; Overall sweetness ([4]; lemonade base "Stevia Hybrid"): 6; Lingering sweetness [4, 7]: 3.5; Mouthfeel [4, 7]: 3.5; Onset [4, 7]: 3.5; Overall sweetness [4, 7]: 5; Lingering sweetness [4, 8]: 4; Mouthfeel [4, 8]: 2.5; Onset [4, 8]: 3; Overall sweetness [4, 8]: 5; Lingering sweetness ([4]; lemonade base "Sugar reduced"): 2; Mouthfeel ([4]; lemonade base "Sugar reduced"): 4; Onset ([4]; lemonade base "Sugar reduced"): 4; Overall sweetness ([4]; lemonade base "Sugar reduced"): 4.5 |
| CCCCCCC(=O)OC[C@H]1O[C@@H](Oc2cc(O)c(C(=O)CCc3ccc(OC)c(O)c3)c(O)c2)[C@H](O)[C@@H](O)[C@@H]1O [Compound 89, 6″-O-Heptanoyl-HG] | 5 mg/kg | 3-4 | 4-5 | 6-7 | 5 | 27.7 |  |  |  |  |  |  |  |  |  |  |  |  |  |  |  |
| COc1ccc([C@@H]2CC(=O)c3c(O)cc(O)cc3O2)cc1O [HT, Hesperetin] |  |  |  |  |  |  | 2.0 | 0.5 | 1.0 | 1.5 | 3.5 | 0.0 | 0.0 | 3.5 | 2.5 | 3.5 | 1.0 | 0.5 | 2.5 | 3.5 |  |
| O=C(CCc1ccc(O)cc1)c1c(O)cc(O)cc1O [PH, Phloretin] |  |  |  |  |  |  | 1.5 | 0.5 | 0.5 | 1.0 | 4.0 | 0.0 | 0.0 | 3.5 | 2.5 | 3.5 | 1.0 | 0.5 | 3.0 | 4.0 |  |
| COc1ccc([C@H]2Cc3cccc(O)c3C(=O)O2)cc1O [PD, Phyllodulcin] |  |  |  |  |  |  | 0.5 | 1.0 | 0.5 | 1.0 | 4.0 | 1.0 | 1.0 | 3.5 | 2.5 | 4.0 | 1.0 | 0.5 | 2.5 | 4.0 |  |
| COc1ccc(CCC(=O)c2c(O)cc(O[C@H]3O[C@@H](CO)[C@H](O)[C@@H](O)[C@@H]3O)cc2O)cc1O [HG, hesperetin dihydrochalcone-4′-O-β-d-glucoside, reference compound] | 50 mg/kg | 2 | 4 | 5 | 4-5 | 34.6 |  |  |  |  |  |  |  |  |  |  |  |  |  |  | effect on impact, intensity and mouthfeel of the sucrose solution (trained flavourist panel; 5% sucrose solution): increases the impact, intensity and mouthfeel; sweet taste of HG in water ([5]; 5 mg/kg HG in water): does not taste sweet; isosweet sucrose concentration ([5]; 10 mg/kg HG in water): 0.5%; isosweet sucrose solution concentration ([5]; 20 mg/kg HG in water): 1% |
| CCCC(=O)OC[C@H]1O[C@@H](Oc2cc(O)c(C(=O)CCc3ccc(OC)c(O)c3)c(O)c2)[C@H](O)[C@@H](O)[C@@H]1O [Compound 41, 6″-O-Butanoyl-HG] | 5 mg/kg | 2-3 | 4-5 | 5-6 | 5 | 24.4 |  |  |  |  |  |  |  |  |  |  | 1.0 | 1.0 |  |  | Lingering sweetness ([4]; lemonade base "Stevia Hybrid"): 1; Mouthfeel ([4]; lemonade base "Stevia Hybrid"): 4.5; Onset ([4]; lemonade base "Stevia Hybrid"): 4; Overall sweetness ([4]; lemonade base "Stevia Hybrid"): 5.5; Lingering sweetness [4, 7]: 2.5; Mouthfeel [4, 7]: 3.5; Onset [4, 7]: 4; Overall sweetness [4, 7]: 5; Lingering sweetness [4, 8]: 3; Mouthfeel [4, 8]: 2; Onset [4, 8]: 2.5; Overall sweetness [4, 8]: 4.5; Lingering sweetness ([4]; lemonade base "Sugar reduced"): 0.5; Mouthfeel ([4]; lemonade base "Sugar reduced"): 3.5; Onset ([4]; lemonade base "Sugar reduced"): 4; Overall sweetness ([4]; lemonade base "Sugar reduced"): 4.5 |
| CCCCCC(=O)OC[C@H]1O[C@@H](Oc2cc(O)c(C(=O)CCc3ccc(OC)c(O)c3)c(O)c2)[C@H](O)[C@@H](O)[C@@H]1O [Compound 73, 6″-O-Hexanoyl-HG] | 5 mg/kg | 3-4 | 4-5 | 6-7 | 5 | 23.1 |  |  |  |  |  |  |  |  |  |  |  |  |  |  |  |
